Data as given in patent US10513523B2, “Imidazopyrazines and pyrazolopyrimidines and their use as AMPA receptor modulators” (Janssen Pharmaceutica NV, priority 2015, dated 2019).

molecular target: GluA1o-γ8 (GRIA1o-CACNG8 fusion construct; TARP γ8 dependent AMPA receptor) (Homo sapiens (Human), UniProt P42261+Q8WXS5); assay: Calcium flux assay (FLIPR), inhibition of glutamate response of GluA1o-γ8 channel; format: cell-based; settings: HEK293 cells stably expressing GRIA1o-CACNG8 fusion; 15 μM glutamate; pIC50 = negative log of IC50 in molar; read-out: GluR1-γ8 (pIC50) (converted)
Sequence (P42261 other isoform, or with tags, fused parts or gaps): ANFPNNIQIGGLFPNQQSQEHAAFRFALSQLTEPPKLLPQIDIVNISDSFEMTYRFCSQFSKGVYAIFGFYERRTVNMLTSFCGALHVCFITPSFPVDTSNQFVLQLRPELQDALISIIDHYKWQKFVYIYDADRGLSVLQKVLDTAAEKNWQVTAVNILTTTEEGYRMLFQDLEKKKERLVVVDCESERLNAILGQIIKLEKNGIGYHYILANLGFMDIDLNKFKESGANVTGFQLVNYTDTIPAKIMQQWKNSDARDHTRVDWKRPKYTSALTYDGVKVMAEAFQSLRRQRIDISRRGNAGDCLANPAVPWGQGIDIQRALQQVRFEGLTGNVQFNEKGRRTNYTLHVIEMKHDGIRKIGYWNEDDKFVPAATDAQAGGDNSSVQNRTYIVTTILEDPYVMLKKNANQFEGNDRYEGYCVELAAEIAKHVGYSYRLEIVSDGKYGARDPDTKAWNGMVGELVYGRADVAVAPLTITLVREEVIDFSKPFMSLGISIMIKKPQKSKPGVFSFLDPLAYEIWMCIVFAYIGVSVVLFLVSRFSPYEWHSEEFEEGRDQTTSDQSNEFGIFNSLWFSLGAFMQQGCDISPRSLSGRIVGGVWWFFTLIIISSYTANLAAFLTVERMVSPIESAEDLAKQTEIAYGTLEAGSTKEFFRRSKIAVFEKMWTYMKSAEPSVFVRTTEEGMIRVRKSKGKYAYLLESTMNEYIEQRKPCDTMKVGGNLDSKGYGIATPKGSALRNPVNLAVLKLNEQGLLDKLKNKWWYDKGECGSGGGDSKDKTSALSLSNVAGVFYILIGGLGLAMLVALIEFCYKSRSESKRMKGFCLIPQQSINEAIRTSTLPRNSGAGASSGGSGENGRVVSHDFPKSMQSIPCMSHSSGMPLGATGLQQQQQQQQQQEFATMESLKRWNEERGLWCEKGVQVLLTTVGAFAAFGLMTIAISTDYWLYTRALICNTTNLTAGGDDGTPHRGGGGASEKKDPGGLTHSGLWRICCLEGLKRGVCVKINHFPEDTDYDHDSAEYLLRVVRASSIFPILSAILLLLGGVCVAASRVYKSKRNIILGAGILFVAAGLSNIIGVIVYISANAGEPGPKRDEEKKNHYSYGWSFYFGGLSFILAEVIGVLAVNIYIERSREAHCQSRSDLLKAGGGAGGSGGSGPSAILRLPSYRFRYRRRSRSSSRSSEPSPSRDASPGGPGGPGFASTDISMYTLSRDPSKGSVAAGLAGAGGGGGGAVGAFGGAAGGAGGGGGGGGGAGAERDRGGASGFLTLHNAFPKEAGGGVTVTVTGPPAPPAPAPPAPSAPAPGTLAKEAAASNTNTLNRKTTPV
How it was run: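 Potency is the midpoint of a four-parameter logistic fit to control-normalized FLIPR calcium responses elicited by 15 μM glutamate. Stable HEK293 cells carried a fused GluA1o-γ8 construct and were preincubated with compound and calcium dye in pH 7.4 HEPES buffer.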

IC50 | SMILES
31.6 nM | N#Cc1ccc(-c2nc3c(N4CCOCC4)nccn3c2-c2ccc(O)cc2)cc1 [Example 95, 4-[3-(4-Hydroxyphenyl)-8-morpholino-imidazo[1,2-a]pyrazin-2-yl]benzonitrile]
316 nM | CC(C)(C)c1nn2cnc(C(F)(F)F)cc2c1-c1ccc2[nH]c(=O)sc2c1 [Example 232, 6-[2-tert-Butyl-5-(trifluoromethyl)pyrazolo[1,5-c]pyrimidin-3-yl]-3H-1,3-benzothiazol-2-one]
1580 nM | CC(C)c1nn2cnc(C(F)(F)F)cc2c1-c1ccc2c(c1)CC(=O)N2 [Example 227, 5-[2-Isopropyl-5-(trifluoromethyl)pyrazolo[1,5-c]pyrimidin-3-yl]indolin-2-one]
25.1 nM | Oc1ccc(-c2c(Cc3ccccc3)nc3c(N4CCOCC4)nccn23)cc1 [Example 15, 4-(2-Benzyl-8-morpholino-imidazo[1,2-a]pyrazin-3-yl)phenol]
2.51 nM | O=C1Cc2cc(-c3c(C(=O)c4ccccc4)nc4c(N5CCS(=O)(=O)CC5)nccn34)ccc2N1 [Example 157, 5-[2-Benzoyl-8-(1,1-dioxo-1,4-thiazinan-4-yl)imidazo[1,2-a]pyrazin-3-yl]indolin-2-one]
0.501 nM | O=C1Cc2cc(-c3c(-c4ccccc4)nn4c(N5CCC(F)CC5)nccc34)ccc2N1 [Example 188, 5-[7-(4-Fluoro-1-piperidyl)-2-phenyl-pyrazolo[1,5-c]pyrimidin-3-yl]indolin-2-one]
0.794 nM | CC(=O)N1CCN(c2nccn3c(-c4ccc5[nH]ncc5c4)c(-c4ccc(C#N)cc4)nc23)CC1 [Example 103, 4-[8-(4-Acetylpiperazin-1-yl)-3-(1H-indazol-5-yl)imidazo[1,2-a]pyrazin-2-yl]benzonitrile]
3.16 nM | CC(=O)N1CCN(c2nccn3c(-c4ccc(O)cc4)c(-c4ccc(Cl)cc4)nc23)CC1 [Example 94, 1-[4-[2-(4-Chlorophenyl)-3-(4-hydroxyphenyl)imidazo[1,2-a]pyrazin-8-yl]piperazin-1-yl]ethanone]
631 nM | Fc1ccc(-c2nc3c(N4CCOCC4)nccn3c2-c2ccc3[nH]cnc3c2)cc1 [Example 31, 4-[3-(1H-Benzimidazol-5-yl)-2-(4-fluorophenyl)imidazo[1,2-a]pyrazin-8-yl]morpholine]
0.158 nM | O=C1Cc2cc(-c3c(-c4ccccc4)nc4c(N5CCOCC5)nccn34)ccc2N1 [Example 65, 5-(8-Morpholino-2-phenyl-imidazo[1,2-a]pyrazin-3-yl)indolin-2-one]
6.31 nM | O=C1Cc2cc(-c3c(-c4ccc(F)cc4)nn4c(N5CC(O)C5)nccc34)ccc2N1 [Example 179, 5-[2-(4-Fluorophenyl)-7-(3-hydroxyazetidin-1-yl)pyrazolo[1,5-c]pyrimidin-3-yl]indolin-2-one]
0.2 nM | O=C1Cc2cc(-c3c(-c4ccc(F)cc4)nc4c(N5CCC6(CC5)OCCO6)nccn34)ccc2N1 [Example 55, 5-[8-(1,4-Dioxa-8-azaspiro[4.5]decan-8-yl)-2-(4-fluorophenyl)imidazo[1,2-a]pyrazin-3-yl]indolin-2-one]
15.8 nM | O=c1[nH]c2ccc(-c3c(C4CCC4)nn4cnc(C(F)(F)F)cc34)cc2s1 [Example 229, 6-[2-Cyclobutyl-5-(trifluoromethyl)pyrazolo[1,5-c]pyrimidin-3-yl]-3H-1,3-benzothiazol-2-one]
100 nM | O=C1Cc2cc(-c3c(-c4ccccc4)nc4cnc(C(F)(F)F)cn34)ccc2N1 [Example 218, 5-[2-Phenyl-6-(trifluoromethyl)imidazo[1,2-a]pyrazin-3-yl]indolin-2-one]
2 nM | N#Cc1ccc(-c2nc3c(N4CCNC(=O)C4)nccn3c2-c2ccc3[nH]ncc3c2)cc1 [Example 209, 4-[3-(1H-Indazol-5-yl)-8-(3-oxopiperazin-1-yl)imidazo[1,2-a]pyrazin-2-yl]benzonitrile]
7.94 nM | O=C1Cc2cc(-c3c(-c4ccc(F)cc4)nc4c(N5CCOC(C(F)(F)F)C5)nccn34)ccc2N1 (centres unmarked) [Example 42, 5-[2-(4-Fluorophenyl)-8-[2-(trifluoromethyl)morpholin-4-yl]imidazo[1,2-a]pyrazin-3-yl]indolin-2-one]
12.6 nM | CNc1nccc2c(-c3ccc4c(c3)CC(=O)N4)c(-c3ccc(F)cc3)nn12 [Example 171, 5-[2-(4-Fluorophenyl)-7-(methylamino)pyrazolo[1,5-c]pyrimidin-3-yl]indolin-2-one]
79.4 nM | Cc1cnc(N2CCOCC2)n2nc(C(C)C)c(-c3ccc4c(c3)CC(=O)N4)c12 [Example 244, 5-(2-Isopropyl-4-methyl-7-morpholino-pyrazolo[1,5-c]pyrimidin-3-yl)indolin-2-one]
39.8 nM | CC(=O)N[C@@H]1CCN(c2nccn3c(-c4ccc5c(c4)CC(=O)N5)c(-c4ccc(F)cc4)nc23)C1 [Example 250, N-[(3R)-1-[2-(4-Fluorophenyl)-3-(2-oxoindolin-5-yl)imidazo[1,2-a]pyrazin-8-yl]pyrrolidin-3-yl]acetamide]

IC50 | SMILES
100 nM | O=C1NCc2cc(-c3c(-c4ccc(F)cc4)nc4c(N5CCOCC5)nccn34)ccc2N1 [Example 120, 6-[2-(4-Fluorophenyl)-8-morpholino-imidazo[1,2-a]pyrazin-3-yl]-3,4-dihydro-1H-quinazolin-2-one]
158 nM | O=C1Cc2cc(-c3c(-c4ccccc4)nc4cnccn34)ccc2N1 [Example 134, 5-(2-Phenylimidazo[1,2-a]pyrazin-3-yl)indolin-2-one]
3.16 nM | O=c1[nH]c2ccc(-c3c(-c4ccc(F)cc4)nc4c(N5CCOCC5)nccn34)cc2o1 [Example 116, 6-(2-(4-Fluorophenyl)-8-morpholinoimidazo[1,2-a]pyrazin-3-yl)benzo[d]oxazol-2(3H)-one]
0.2 nM | CC1COCCN1c1nccc2c(-c3ccc4c(c3)CC(=O)N4)c(-c3ccc(F)cc3)nn12 (centres unmarked) [Example 177, 5-[2-(4-Fluorophenyl)-7-(3-methylmorpholin-4-yl)pyrazolo[1,5-c]pyrimidin-3-yl]indolin-2-one]
0.794 nM | O=C1Cc2cc(-c3c(-c4ccc(F)cc4)nc4c(N5CC(CO)C5)nccn34)ccc2N1 [Example 64, 5-[2-(4-Fluorophenyl)-8-[3-(hydroxymethyl)azetidin-1-yl]imidazo[1,2-a]pyrazin-3-yl]indolin-2-one]
0.0631 nM | O=C1CCN(c2nccn3c(-c4ccc5c(c4)CC(=O)N5)c(-c4ccc(F)cc4)nc23)CC1 [Example 109, 5-(2-(4-Fluorophenyl)-8-(4-oxopiperidin-1-yl)imidazo[1,2-a]pyrazin-3-yl)indolin-2-one]
1.58 nM | O=C1Cc2cc(-c3c(-c4ccc(F)cc4)nc4c(N5CC[C@H](O)C5)nccn34)ccc2N1 (single isomer, unassigned) [Example 53, (S*)-5-[2-(4-Fluorophenyl)-8-(3-hydroxypyrrolidin-1-yl)imidazo[1,2-a]pyrazin-3-yl]indolin-2-one]
0.158 nM | CC(=O)N1CCN(c2nccc3c(-c4ccc5c(c4)CC(=O)N5)c(-c4ccc(F)cc4)nn23)CC1 [Example 172, 5-[7-(4-Acetylpiperazin-1-yl)-2-(4-fluorophenyl)pyrazolo[1,5-c]pyrimidin-3-yl]indolin-2-one]
126 nM | CC(C)(C)c1nc2c(N3CCC(O)CC3)nccn2c1-c1ccc2c(c1)CC(=O)N2 [Example 88, 5-[2-tert-Butyl-8-(4-hydroxy-1-piperidyl)imidazo[1,2-a]pyrazin-3-yl]indolin-2-one]
20 nM | CC(C)Oc1nccn2c(-c3ccc4c(c3)CC(=O)N4)c(-c3ccc(F)cc3)nc12 [Example 129, 5-[2-(4-Fluorophenyl)-8-isopropoxy-imidazo[1,2-a]pyrazin-3-yl]indolin-2-one]
631 nM | O=C1Cc2cc(-c3c(-c4ccc(F)cc4)nc4c(F)nccn34)ccc2N1 [Example 132, 5-[8-Fluoro-2-(4-fluorophenyl)imidazo[1,2-a]pyrazin-3-yl]indolin-2-one]
0.631 nM | C[C@H]1COCCN1c1nccn2c(-c3ccc4c(c3)CC(=O)N4)c(-c3ccc(F)cc3)nc12 [Example 43, 5-[2-(4-Fluorophenyl)-8-[(3S)-3-methylmorpholin-4-yl]imidazo[1,2-a]pyrazin-3-yl]indolin-2-one]
1.26 nM | CC1(O)CN(c2nccn3c(-c4ccc5c(c4)CC(=O)N5)c(-c4ccc(F)cc4)nc23)C1 [Example 67, 5-[2-(4-Fluorophenyl)-8-(3-hydroxy-3-methyl-azetidin-1-yl)imidazo[1,2-a]pyrazin-3-yl]indolin-2-one]
398 nM | O=c1[nH]c2ccc(-c3c(C4CC4)nn4cnc(C(F)(F)F)cc34)cc2s1 [Example 230, 6-[2-Cyclopropyl-5-(trifluoromethyl)pyrazolo[1,5-c]pyrimidin-3-yl]-3H-1,3-benzothiazol-2-one]
63.1 nM | CC(C)(C)c1nn2c(N3CC(F)(F)C3)nccc2c1-c1ccc2c(c1)CC(=O)N2 [Example 183, 5-[2-tert-Butyl-7-(3,3-difluoroazetidin-1-yl)pyrazolo[1,5-c]pyrimidin-3-yl]indolin-2-one]
1.58 nM | O=C1Cc2cc(-c3c(-c4ccc(F)cc4)nc4c(N5CC[C@@H](O)C5)nccn34)ccc2N1 (single isomer, unassigned) [Example 52, (R*)-5-[2-(4-Fluorophenyl)-8-(3-hydroxypyrrolidin-1-yl)imidazo[1,2-a]pyrazin-3-yl]indolin-2-one]
63.1 nM | CC(C)c1nn2cnc(C(F)(F)F)cc2c1-c1ccc2[nH]c(=O)sc2c1 [Example 231, 6-[2-Isopropyl-5-(trifluoromethyl)pyrazolo[1,5-c]pyrimidin-3-yl]-3H-1,3-benzothiazol-2-one]
100 nM | O=C1Cc2cc(-c3c(-c4ccc(F)cc4)nc4cnccn34)ccc2N1 [Example 135, 5-(2-(4-Fluorophenyl)imidazo[1,2-a]pyrazin-3-yl)indolin-2-one]
3.98 nM | N#Cc1ccc(-c2nc3c(N4CCOCC4)nccn3c2-c2ccc3[nH]ncc3c2)cc1 [Example 97, 4-[3-(1H-Indazol-5-yl)-8-morpholino-imidazo[1,2-a]pyrazin-2-yl]benzonitrile]
